One experiment has as its system ApoE deficient mice. Put plainly: High cholesterol mouse model, ApoE deficient mice, 2 weeks. The format is in vivo. To be noted: Compound 60 mg/kg three times a week for two weeks, n=10/group, FIG. 22. An excerpt: Ten-week-old male apoE knockout mice (Jackson Laboratories, Bar Harbor, Me.) were fed a normal chow diet (0.02% cholesterol, 13.5% fat by weight; LabDiet). […] After 2 weeks of acclimatization, whole blood was collected for baseline measurement before administration of test reagents. […] The animals were sacrificed at end of study.
ApoE deficient mice as described in Example 10 were used to test the effect of various compounds on cholesterol levels. […] A statin compound (rosuvastatin) was also tested. Blood samples were collected at the end of the study and total cholesterol blood levels were tested. A group of 10 mice was sacrificed at the beginning of the study for a baseline total cholesterol measurement. […] Typically statins show mixed results in this model and are not very effective to reduce cholesterol in mice (Bea et al. 2003 Atherosclerosis 167:187-194).

The subject of experiment [1] is genes involved in cholesterol biosynthesis in DIO mice liver. Put plainly: Microarray expression of cholesterol biosynthesis genes in liver of DIO mice. The format is in vivo, mouse. To be noted: 60 mg/kg three times a week, 4 weeks of dosing, relative to vehicle treated mice. On the procedure: (§1) A number of PHI compounds were evaluated for their effect on the expression of cholesterol biosynthesis genes in mouse liver. […] Liver tissue was harvested and stored in RNALater (Life Technologies). Total RNA was isolated with Trizol (Life Technologies) and purified with RNEasy96 (Qiagen) according to the manufacturers' protocols. RNA concentration was measured by NanoDrop (Thermo), and quality was assessed by Bioanalyzer (Agilent).
(§2) Biotinylated microarray probe was prepared using the 3′IVT Express kit (Affymetrix) and hybridized to mouse 430A 2.0 arrays as recommended in the manufacturer's protocol. Arrays were stained, washed, and scanned using Affymetrix equipment and software. Three arrays were run for each treatment and time point, each representing the liver sample from one individual animal.
(§3) For microarray analysis, RNA from animals in each treatment group was pooled in pairs (n=3 pairs for 4 h vehicle, n=2 pairs for all other treatment groups, for a total of 13 arrays per compound study). This approach was used to improve the signal-to-noise ratio on microarrays. Biotinylated probe was prepared using the One-Cycle cDNA synthesis kit (Affymetrix) and hybridized to mouse 430A 2.0 arrays as recommended in the manufacturer's protocol. Arrays were stained, washed, and scanned using Affymetrix equipment and software.
(§4) Array quality was assessed with GeneChip Operating System and/or Command Console software (Affymetrix). CEL files were uploaded to GeneSpring 7.3.1 (Agilent) using GC-RMA baseline correction. Principal Components Analysis was used to identify and reject outlier arrays. Data are reported as fold-change compared to timepoint-matched vehicle controls from the same study. Values less than 1.0 indicate a reduction of RNA in the treated animal liver tissue.
Liver tissue was collected as described in Example 6 from DIO mice at the end of the study (4 weeks of dosing) described in Example 12. RNA isolation and microarray analysis were carried out as described in Example 6. The expression of 16 genes involved in cholesterol biosynthesis in mice treated with Compound B, Compound E, or Compound D, relative to that in the vehicle treated mice, is shown in Table 7.

Experiment [2] concerns subjects with end-stage renal disease (ESRD) receiving maintenance hemodialysis. Description: Study 2: phase 2 study of compound A vs EPO in ESRD subjects on maintenance hemodialysis. The format is in vivo, human. To be noted: treated for 19 weeks, FIG. 2.
Method: Total cholesterol and lipid panels were measured by standard procedures.
Total cholesterol was measured from all subjects in Study 1 or Study 2 as part of the chemistry panel at prespecified time points.
Frozen serum samples, collected from subjects in Study 1 or Study 2, were selected for the lipid panel analysis based on the following criteria: 1) with matched baseline (D1W1) and; 2) at least one other time point. The complete lipid panel includes: total cholesterol (TC), HDL, LDL-measured, Triglycerides and VLDL (Calculated). Ratio of HDL/LDL or LDL/HDL were analyzed.
A total of n=20 subjects were selected and assayed for the complete lipid panel as described above. Subjects on this study protocol were not required to fast nor have any diet restrictions.
The test system of experiment [3] is subjects with end stage renal disease (ESRD). Put plainly: ESRD subjects switched from epoetin alfa to Compound A or continued on epoetin alfa. To be noted: six weeks. The format is in vivo, human. On the procedure: Mean total cholesterol change for the Compound A-treated subjects (all cohorts) was a decrease of 15 mg/dL compared to an increase of 18 mg/dL for the epoetin alfa treated subjects.

Experiment [4] shares this test system. The experiment is described as above. The format is in vivo, human.
In experiment [5] the test system is Cholesterol Biosynthesis Genes in the Mouse Liver. Put plainly: Microarray expression of cholesterol biosynthesis genes in mouse liver. It is filed as in vivo. To be noted: 10 mg/kg oral. On the procedure: as §1, §2
Animals were sacrificed 4 h or 8 h later. Each compound was tested in a separate animal study with separate controls. Liver tissue was harvested and stored in RNALater (Life Technologies). Total RNA was isolated with Trizol (Life Technologies) and purified with RNEasy96 (Qiagen) according to the manufacturers' protocols. RNA concentration was measured by NanoDrop (Thermo), and quality was assessed by Bioanalyzer (Agilent).
as §3, §4

Where [6] appears, read: baseline, Compound A 3 cohorts n=74, Epoetin alfa n=22.

As for `O=C(O)CNC(=O)c1nc(Cl)c2ccccc2c1O` [Compound B, [(1-Chloro-4-hydroxy-isoquinoline-3-carbonyl)-amino]-acetic acid], in the experiment with ApoE deficient mice, the “total cholesterol levels at the end of the study compared to baseline” value was “trend towards lower total cholesterol”. In experiment [1], the “3-hydroxy-3-methylglutaryl-Coenzyme A reductase (Hmgcr) expression” value is given as 0.20, the “3-hydroxy-3-methylglutaryl-Coenzyme A synthase 1 (Hmgcs1) expression” value is recorded as 0.15, the “7-dehydrocholesterol reductase (Dhcr7) expression” value stood at 0.43 and the “NAD(P) dependent steroid dehydrogenase-like (Nsdhl) expression” value was determined as 0.34. Besides, in experiment [1], the “acetyl-Coenzyme A acetyltransferase 2 (Acat2) expression” value was 0.43; the “cytochrome P450, family 51 (Cyp51) expression” value is on record as 0.18; the “farnesyl diphosphate farnesyl transferase 1 (Fdft1) expression” value was 0.30; the “farnesyl diphosphate synthetase (Fdps) expression” value was 0.26. Besides, in experiment [1], the “isopentenyl-diphosphate delta isomerase (Idi1) expression” value stood at 0.23, the “lanosterol synthase (Lss) expression” value stood at 0.38, the “mevalonate (diphospho) decarboxylase (Mvd) expression” value turned out to be 0.20 and the “mevalonate kinase (Mvk) expression” value is on record as 0.54. Further, in experiment [1], the “phosphomevalonate kinase (Pmvk) expression” value amounted to 0.48; the “squalene epoxidase (Sqle) expression” value is 0.21; the “sterol-C4-methyl oxidase-like (Sc4mol) expression” value was determined as 0.13; the “sterol-C5-desaturase (fungal ERG3, delta-5-desaturase) homolog (S. cerevisae) (Sc5d) expression” value was 0.30.

Epoetin alfa [reference compound]: the “change in total cholesterol from baseline over time” value in experiment [2] was “No reduction of total cholesterol”. Also, in experiment [3] (Mean (±SD), Compound A orally three times a week (n=74) or continued epoetin alfa (n=22)), the “Total Cholesterol change” value is recorded as “+18 (22) mg/dL”. In addition, the “Mean total cholesterol change, increase” value in experiment [3] is listed as 18 mg/dL. The LDL cholesterol change result in experiment [4] (Mean (±SD), six weeks, Compound A orally three times a week (n=74) or continued epoetin alfa (n=22)) is recorded as “+5 (14) mg/dL”. Besides, in experiment [4] (setting [6]), the “Mean BL LDL Cholesterol” value is reported as 90.75 mg/dL and the “Mean BL Total Cholesterol” value amounted to 158.41 mg/dL. In addition, in experiment [4] (both groups stratified by BL total cholesterol ≦200 or >200 mg/dL, FIG. 16), the “mean total cholesterol over the course of treatment” value was “increase”. In experiment [4] (six weeks), the HDL-C result is reported as “did not change significantly” and the “Mean change in LDL-C, increase” value came to 5 mg/dL. In experiment [4] (subjects with the higher BL total cholesterol (n=2), FIG. 17), the “mean LDL-C over the course of treatment” value is “slight decrease”. Besides, the “mean LDL-C over the course of treatment” value in experiment [4] (subjects with the lower BL total cholesterol (n=20)) is recorded as “increase”.

With `N#Cc1nc(C(=O)NCC(=O)O)c(O)c2c(Oc3ccccc3)cccc12` [Compound E, [(1-Cyano-4-hydroxy-5-phenoxy-isoquinoline-3-carbonyl)-amino]-acetic acid], in experiment [1], the “3-hydroxy-3-methylglutaryl-Coenzyme A reductase (Hmgcr) expression” value was found to be 0.36, the “3-hydroxy-3-methylglutaryl-Coenzyme A synthase 1 (Hmgcs1) expression” value is reported as 0.33, the “7-dehydrocholesterol reductase (Dhcr7) expression” value is on record as 0.52 and the “NAD(P) dependent steroid dehydrogenase-like (Nsdhl) expression” value is recorded as 0.77. Besides, in experiment [1], the “acetyl-Coenzyme A acetyltransferase 2 (Acat2) expression” value is given as 0.69; the “cytochrome P450, family 51 (Cyp51) expression” value is 0.26; the “farnesyl diphosphate farnesyl transferase 1 (Fdft1) expression” value amounted to 0.40; the “farnesyl diphosphate synthetase (Fdps) expression” value was 0.57. Besides, in experiment [1], the “isopentenyl-diphosphate delta isomerase (Idi1) expression” value is on record as 0.42, the “lanosterol synthase (Lss) expression” value is listed as 0.45, the “mevalonate (diphospho) decarboxylase (Mvd) expression” value came to 0.34 and the “mevalonate kinase (Mvk) expression” value was determined as 0.58. Further, in experiment [1], the “phosphomevalonate kinase (Pmvk) expression” value came to 0.74; the “squalene epoxidase (Sqle) expression” value amounted to 0.52; the “sterol-C4-methyl oxidase-like (Sc4mol) expression” value came to 0.27; the “sterol-C5-desaturase (fungal ERG3, delta-5-desaturase) homolog (S. cerevisae) (Sc5d) expression” value was found to be 0.34.

As for `N#Cc1nc(C(=O)NCC(=O)O)c(O)c2ccn(Cc3ccc4ccccc4c3)c12` [Compound J, [(7-Cyano-4-hydroxy-1-naphthalen-2-ylmethyl-1H-pyrrolo[2,3-c]pyridine-5-carbonyl)-amino]-acetic acid], in experiment [5] (4 h), the “3-hydroxy-3-methylglutaryl-Coenzyme A reductase (Hmgcr) RNA expression” value amounted to 0.38 fold-change, the “3-hydroxy-3-methylglutaryl-Coenzyme A synthase 1 (Hmgcs1) RNA expression” value was 0.28 fold-change, the “7-dehydrocholesterol reductase (Dhcr7) RNA expression” value turned out to be 0.52 fold-change and the “NAD(P) dependent steroid dehydrogenase-like (Nsdhl) RNA expression” value came out at 0.42 fold-change. Besides, in experiment [5] (4 h), the “acetyl-Coenzyme A acetyltransferase 2 (Acat2) RNA expression” value is listed as 0.58 fold-change; the “cytochrome P450, family 51 (Cyp51) RNA expression” value was found to be 0.38 fold-change; the “farnesyl diphosphate farnesyl transferase 1 (Fdft1) RNA expression” value was determined as 0.70 fold-change; the “farnesyl diphosphate synthetase (Fdps) RNA expression” value came to 0.38 fold-change. Besides, in experiment [5] (4 h), the “isopentenyl-diphosphate delta isomerase (Idi1) RNA expression” value amounted to 0.25 fold-change, the “lanosterol synthase (Lss) RNA expression” value is listed as 0.77 fold-change, the “mevalonate (diphospho) decarboxylase (Mvd) RNA expression” value amounted to 0.72 fold-change and the “mevalonate kinase (Mvk) RNA expression” value turned out to be 0.79 fold-change. In addition, in experiment [5] (4 h), the “phosphomevalonate kinase (Pmvk) RNA expression” value is 0.59 fold-change; the “squalene epoxidase (Sqle) RNA expression” value amounted to 0.26 fold-change; the “sterol-C4-methyl oxidase-like (Sc4mol) RNA expression” value turned out to be 0.27 fold-change; the “sterol-C5-desaturase (fungal ERG3, delta-5-desaturase) homolog (S. cerevisae) (Sc5d) RNA expression” value was found to be 1.22 fold-change. Besides, in experiment [5] (8 h), the “3-hydroxy-3-methylglutaryl-Coenzyme A reductase (Hmgcr) RNA expression” value turned out to be 0.43 fold-change, the “3-hydroxy-3-methylglutaryl-Coenzyme A synthase 1 (Hmgcs1) RNA expression” value is recorded as 0.92 fold-change, the “7-dehydrocholesterol reductase (Dhcr7) RNA expression” value stood at 0.94 fold-change and the “NAD(P) dependent steroid dehydrogenase-like (Nsdhl) RNA expression” value worked out at 1.03 fold-change. In addition, in experiment [5] (8 h), the “acetyl-Coenzyme A acetyltransferase 2 (Acat2) RNA expression” value worked out at 0.91 fold-change; the “cytochrome P450, family 51 (Cyp51) RNA expression” value was determined as 0.80 fold-change; the “farnesyl diphosphate farnesyl transferase 1 (Fdft1) RNA expression” value is given as 0.66 fold-change; the “farnesyl diphosphate synthetase (Fdps) RNA expression” value stood at 0.66 fold-change. In experiment [5] (8 h), the “isopentenyl-diphosphate delta isomerase (Idi1) RNA expression” value is given as 0.70 fold-change, the “lanosterol synthase (Lss) RNA expression” value is given as 0.76 fold-change, the “mevalonate (diphospho) decarboxylase (Mvd) RNA expression” value came out at 0.83 fold-change and the “mevalonate kinase (Mvk) RNA expression” value is 0.79 fold-change. Further, in experiment [5] (8 h), the “phosphomevalonate kinase (Pmvk) RNA expression” value worked out at 0.84 fold-change; the “squalene epoxidase (Sqle) RNA expression” value is 1.03 fold-change; the “sterol-C4-methyl oxidase-like (Sc4mol) RNA expression” value worked out at 0.52 fold-change; the “sterol-C5-desaturase (fungal ERG3, delta-5-desaturase) homolog (S. cerevisae) (Sc5d) RNA expression” value is reported as 0.81 fold-change.

Values taken from patent US20150018384A1, “TREATMENT FOR HIGH CHOLESTEROL” (FibroGen, Inc., priority 2012, published 2015).
